Entries after “also recorded” stand apart in the source; their conditions may differ. Like-named read-outs stand apart in the source and are kept apart here. Blank lines part the entries; values can stand above or below the compound they belong to.
Tests used:
[1] = biological target: T1, ovine COX-1 (Ovis aries, UniProt P05979); experiment: In vitro COX-1 inhibition (Cayman COX Inhibitor Screening Assay kit); format: biochemical; details: for % Inhibition (COX-1): Compound concentration 50 μΜ, arachidonic acid 0.1 μM; for IC50: read-out: Experimental IC50 COX-1
T1 construct: purchased Cayman Chemical Co., Ann Arbor, MI, USA
T1 sequence (P05979 25-600): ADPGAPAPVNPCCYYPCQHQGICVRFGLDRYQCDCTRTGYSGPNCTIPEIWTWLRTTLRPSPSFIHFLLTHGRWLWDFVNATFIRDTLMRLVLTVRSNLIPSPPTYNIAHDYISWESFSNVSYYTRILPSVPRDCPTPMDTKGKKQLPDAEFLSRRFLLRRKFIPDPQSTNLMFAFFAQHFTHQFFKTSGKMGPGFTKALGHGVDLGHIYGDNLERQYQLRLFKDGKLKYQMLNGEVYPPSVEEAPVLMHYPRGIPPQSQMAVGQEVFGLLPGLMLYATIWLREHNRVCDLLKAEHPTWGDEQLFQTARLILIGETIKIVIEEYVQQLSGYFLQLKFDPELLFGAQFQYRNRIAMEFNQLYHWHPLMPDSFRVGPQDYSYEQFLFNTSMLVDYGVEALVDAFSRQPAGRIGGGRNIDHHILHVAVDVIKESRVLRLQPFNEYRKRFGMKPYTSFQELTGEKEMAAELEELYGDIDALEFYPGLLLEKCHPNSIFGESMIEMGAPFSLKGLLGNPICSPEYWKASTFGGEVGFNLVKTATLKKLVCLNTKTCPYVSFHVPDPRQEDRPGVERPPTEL
Protocol: (§1) The COX-1 and COX-2 activities of the compounds were measured using ovine COX-1 and human recombinant COX-2 enzymes included in the “COX Inhibitor Screening Assay” kit provided by Cayman (Cayman Chemical Co., Ann Arbor, MI, USA) as reported previously

[2] = biological target: T2, human recombinant COX-2 (Homo sapiens, UniProt P35354); experiment: In vitro COX-2 inhibition (Cayman COX Inhibitor Screening Assay kit); format: biochemical; details: for % Inhibition (COX-2): Compound concentration 50 μΜ, arachidonic acid 0.1 μM; for IC50: read-out: Experimental IC50 COX-2
T2 construct: purchased Cayman Chemical Co., Ann Arbor, MI, USA
T2 sequence (P35354 18-604): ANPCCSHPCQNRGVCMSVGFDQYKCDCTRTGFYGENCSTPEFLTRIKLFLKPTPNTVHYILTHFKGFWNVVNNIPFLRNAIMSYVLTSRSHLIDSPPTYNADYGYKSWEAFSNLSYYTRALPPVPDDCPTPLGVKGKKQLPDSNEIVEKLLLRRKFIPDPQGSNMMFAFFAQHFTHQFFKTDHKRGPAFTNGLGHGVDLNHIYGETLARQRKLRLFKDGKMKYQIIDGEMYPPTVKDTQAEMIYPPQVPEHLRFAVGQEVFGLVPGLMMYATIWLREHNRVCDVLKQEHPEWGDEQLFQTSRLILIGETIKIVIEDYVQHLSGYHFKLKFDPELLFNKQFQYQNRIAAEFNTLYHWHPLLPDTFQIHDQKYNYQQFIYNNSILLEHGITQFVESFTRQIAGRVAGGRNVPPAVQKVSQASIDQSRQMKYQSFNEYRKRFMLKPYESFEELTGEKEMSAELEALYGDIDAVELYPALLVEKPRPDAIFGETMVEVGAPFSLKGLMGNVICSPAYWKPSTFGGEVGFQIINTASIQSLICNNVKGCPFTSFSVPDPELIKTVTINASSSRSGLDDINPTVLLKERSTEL
Protocol: as §1

[3] = tested on: carrageenan mice paw oedema; experiment: Carrageenin-induced mouse paw edema; format: in vivo, mice (AKR); details: for inhibition in vivo at 0.1 µmol/g: Mus musculus, ip, read-out: CPE, %; for anti-inflammatory activity, reference compounds: dose not given
Protocol: From the data of Table 7 it is obvious that anti-inflammatory activity of alkylsulfones and sulfoxides of furan-3(2H)-ones, including annelated derivatives are very similar.
The anti-inflammatory activity of compounds was performed using the carrageenan mice paw oedema assay. Animal of both sex (AKR), with exception of pregnant females were housed under standard conditions, receiving only water during the experimental period. […] The detailed description of the whole experiment reported previously. All the biological experiments were carried out in full compliance with the European Convention for the Protection of Vertebrate Animals used for Experimental or Other Scientific Purposes (ETS NO 123, Strasbourg, 03/18/1986): Strasbourg (France). European Treaty Series, № 123, March 18, 1986. 11 P. The project identification code and date of approval is 350880/3468 of 15-12-2014, University of Thessaloniki.

[4] = tested on: MCF-7 cells; experiment: Growth inhibition assay, MCF-7 cells; format: cell-based, human; details: 48 h exposure
[5] = tested on: MCF-7 cells; experiment: Combination (synergy) growth assay in MCF-7 cells, Combination Index; format: cell-based, human; details: MCF-7, 48 h; for Combination Effect with 5-fluorouracil / CI, combination with 5-fluorouracil: + 0.3 μM 5-fu; for % Cell Growth, combination with 5-fluorouracil: + 0.3 μM 5-fu (21.3 μM 1h, 2.9 μM 1g, 3.8 μM x-1, 29 μM cel); for CI, combination with 5-fluorouracil / CI, combination with gefitinib: CI <1 synergy, >1 antagonism; for Combination Effect with gefitinib / CI, combination with gefitinib: + 70 μM gef; for % Cell Growth, combination with gefitinib: + 70 μM gef (27.5 μM 1h, 10 μM 1g, 10 μM x-1, 29 μM cel)
Protocol: In addition, exposure of the MCF-7 cells to each of the compounds in combination with each one of the two anti-neoplastic drugs was performed in order to study the synergistic effect of the compounds. The results are shown in Table 9 and Figure 5 and Figure 6.

[6] = tested on: MCF-7 cells; experiment: as above; format: cell-based, human; details: MCF-7, 48 h
[7] = tested on: HSC-3 cells; experiment: Growth inhibition assay, HSC-3 cells
[8] = Dose 0.1 µmol/g, intraperitoneally, simultaneously with carrageenin

% Inhibition (COX-1) [1]: 0% | % Inhibition (COX-2) [2]: 0%
SMILES: C[S+]([O-])c1ccc(C2=C(c3ccc(Cl)cc3)OC(C)(C)C2=O)cc1 (stereo not drawn) [1j]
inhibition in vivo at 0.1 µmol/g [3, 8]: 54%

IC50 [1]: 28 µM | IC50 [2]: 20 µM | melting point: 224 to 225 °C
SMILES: CC1(C)OC(c2ccc(Cl)cc2)=C(c2ccc(S(N)(=O)=O)cc2)C1=O [1v, 5-(4′-Chlorophenyl)-2,2-dimethyl-4-[4′-(aminosulfonyl)phenyl]-furan-3(2H)-one]
inhibition in vivo at 0.1 µmol/g [3, 8]: 44.3%

SMILES: COc1ccc2cc([C@H](C)C(=O)O)ccc2c1 [Naproxen, reference compound]
IC50 [2]: 50 µM

% Inhibition (COX-1) [1]: 0% | % Inhibition (COX-2) [2]: 0%
SMILES: CC1(C)OC(c2ccccc2)=C(c2ccc(S(C)(=O)=O)cc2)C1=O [1c, 2,2-Dimethyl-4-[4′-(methylsulfonyl)phenyl]-5-phenylfuran-3(2H)-one]
inhibition in vivo at 0.1 µmol/g [3, 8]: 50.2%

melting point: 158 to 160 °C
SMILES: CC1(C)OC(c2ccccc2)=C(c2ccc(S(N)(=O)=O)cc2)C1=O [1q, 5-(4′-Phenyl)-2,2-dimethyl-4-[4′-(aminosulfonyl)phenyl]-furan-3(2H)-one]
inhibition in vivo at 0.1 µmol/g [3, 8]: 38%

SMILES: CC1(C)OC(c2ccc(S(C)(=O)=O)cc2)=C(c2cccc(Cl)c2)C1=O [E-3, reference compound]
inhibition in vivo at 0.1 µmol/g [3, 8]: 52.1%

% Inhibition (COX-1) [1]: 80% | IC50 [1]: 29 µM | % Inhibition (COX-2) [2]: 6% | IC50 [2]: > 50 µM | melting point: 223 to 225 °C
SMILES: CC1(C)OC(c2ccc(Cl)cc2)=C(c2ccc(S(C)(=O)=O)cc2)C1=O [1k, 5-(4′-Chlorophenyl)-2,2-dimethyl-4-[4′-(methylsulfonyl)phenyl]-furan-3(2H)-one]
inhibition in vivo at 0.1 µmol/g [3, 8]: 50.6%

SMILES: Cc1ccc(-c2cc(C(F)(F)F)nn2-c2ccc(S(N)(=O)=O)cc2)cc1 [Celecoxib, reference compound]
anti-inflammatory activity, reference compounds [3]: 64.6% | IC50 [4]: 29.2 µM | IC50 ([4]; Homo sapiens, MCF7, 48 h): 29.2 µM | Combination Effect with 5-fluorouracil [5]: antagonism | % Cell Growth, combination with 5-fluorouracil [5]: 49.3% | CI, combination with 5-fluorouracil [5]: 1.57 | CI, combination with 5-fluorouracil ([5]; listed as cel): >1 | Combination Effect with gefitinib [5]: antagonism | % Cell Growth, combination with gefitinib [5]: 56.8% | CI, combination with gefitinib [5]: 9.8 | CI, combination with gefitinib ([5]; listed as cel): >1

IC50 [1]: 22 µM | IC50 [2]: 71 µM | melting point: 219 to 221 °C
SMILES: CC1(C)OC(c2cccc(Cl)c2)=C(c2ccc(S(C)(=O)=O)cc2)C1=O [1o, 5-(3′-Chlorophenyl)-2,2-dimethyl-4-[4′-(methylsulfonyl)phenyl]-furan-3(2H)-one]
inhibition in vivo at 0.1 µmol/g [3, 8]: 50.7%

SMILES: CC1(C)Oc2c(c3ccc(S(C)(=O)=O)cc3c3cc(F)ccc23)C1=O [x-2, 3-Fluoro-2′,2′-dimethyl-6-(methylsulfonyl)-phenanthro[9,10-b]furan-3′(2′H)-one]
inhibition in vivo at 0.1 µmol/g [3]: 40% | melting point: 242 to 244 °C

melting point: 204 to 205 °C
SMILES: CNS(=O)(=O)c1ccc(C2=C(c3ccc(Cl)cc3)OC(C)(C)C2=O)cc1 [1vMe, 5-(4′-Chlorophenyl)-2,2-dimethyl-4-[4′-(methylaminosulfonyl)phenyl]-furan-3(2H)-one]

IC50 [4]: 0.03 µM
SMILES: O=c1[nH]cc(F)c(=O)[nH]1 [5-Fluorouracil, reference compound]

SMILES: COc1ccc2c(c1)c(CC(=O)O)c(C)n2C(=O)c1ccc(Cl)cc1 [indomethacin, reference compound]
anti-inflammatory activity, reference compounds [3]: 47%

SMILES: C[S+]([O-])c1ccc(C2=C(c3ccccc3)OC(C)(C)C2=O)cc1 (stereo not drawn) [1b, 2,2-Dimethyl-4-[4′-(methylsulfinyl)phenyl]-5-phenylfuran-3(2H)-one]
inhibition in vivo at 0.1 µmol/g [3, 8]: 47%

SMILES: CC1(C)Oc2c(c3ccc(S(C)(=O)=O)cc3c3ccccc23)C1=O [x-1, 2′,2′-dimethyl-3-(methylsulfonyl)-phenanthro[9,10-b]furan-3′(2′H)-one]
inhibition in vivo at 0.1 µmol/g [3]: 45% | IC50 ([4]; Homo sapiens, MCF7, 48 h): 10 µM | Combination Effect with 5-fluorouracil [5]: antagonistic effect; also recorded: antagonism | % Cell Growth, combination with 5-fluorouracil [5]: 21.0% | CI, combination with 5-fluorouracil [5]: >1 | Combination Effect with gefitinib [5]: synergism | % Cell Growth, combination with gefitinib [5]: 24.3% | CI, combination with gefitinib [5]: 0.260 ± 0.033 < 1 | CI, combination with gefitinib ([5]; listed as X-1): 0.260 | melting point: 222 to 224 °C | Combination Effect with celecoxib ([6]; + 29 μM cel): antagonism | % Cell Growth, combination with celecoxib ([6]; + 29 μM cel (21.3 μM 1h, 2.9 μM 1g, 3.8 μM x-1)): 60.6% | CI, combination with celecoxib ([6]; + 29 μM cel, CI <1 synergy, >1 antagonism): >1 | HSC-3 % Cell Growth ([7]; Compound concentration: 10μΜ): 91 ± 10% | IC50 ([7]; Homo sapiens, HSC-3, 48 h, read-out: HSC-3 IC50 Values): 60 µM

IC50 [1]: 70 µM | IC50 [2]: > 50 µM | melting point: 167 to 169 °C
SMILES: CC1(C)OC(c2ccc(F)cc2)=C(c2ccc(S(N)(=O)=O)cc2)C1=O [1w, 5-(4′-Fluorophenyl)-2,2-dimethyl-4-[4′-(aminosulfonyl)phenyl]-furan-3(2H)-one]
inhibition in vivo at 0.1 µmol/g [3, 8]: 43.7%

SMILES: CC1(C)OC(c2ccc(S(C)(=O)=O)cc2)=C(c2ccccc2)C1=O [E-1, reference compound]
inhibition in vivo at 0.1 µmol/g [3, 8]: 57.7%

melting point: 198 to 200 °C
SMILES: CC1(C)OC(c2cccc(Cl)c2)=C(c2ccc(S(N)(=O)=O)cc2)C1=O [1u, 5-(3′-Chlorophenyl)-2,2-dimethyl-4-[4′-(aminosulfonyl)phenyl]-furan-3(2H)-one]

SMILES: C[S+]([O-])c1ccc(C2=C(c3cccc(Cl)c3)OC(C)(C)C2=O)cc1 (stereo not drawn) [1n, 5-(3′-Chlorophenyl)-2,2-dimethyl-4-[4′-(methylsulfinyl)phenyl]-furan-3(2H)-one]
inhibition in vivo at 0.1 µmol/g [3, 8]: 51%

— publication PMC6539231, “4,5-Diaryl 3(2H)Furanones: Anti-Inflammatory Activity and Influence on Cancer Growth” (Molecules, 2019)
